Assay results taken from patent publication US4528392A, “Aromatic compounds as antiallergic agents” (American Home Products Corporation, priority 1984, dated 1985).
pIC50: −log10 of the molar value.

How the values were obtained:
[1] = test system: ovalbumin induced bronchospasm mediated by endogenous products of the lipoxygenase oxidation of arachidonic acid; assay: in vivo inhibition of ovalbumin induced bronchospasm in guinea pigs by endogenous mediators; design: species or system guinea pig (male Hartley); conditions: 50 mg/kg intraduodenal, 10 minutes before ovalbumin challenge, indomethacin and chlorpheniramine pretreated
Description: The assay of this Example measures the in vivo ability of the compounds of the invention to inhibit the bronchospasm induced in guinea pigs by endogenous mediators of the bronchoconstriction.
The assay is carried out as follows:
Male Hartley strain guinea pigs weighing 350-600 g are sensitized to ovalbumin (OA) (5 mg i.p. and 5 mg s.c.) on day 0. Three to five weeks later, the animals are anesthetized with pentobarbital sodium (50 mg/kg, i.p.). The jugular vein is cannulated for injection of drugs and the carotid artery for monitoring blood pressure. The trachea is cannulated for artificial ventilation by miniature Staring pump and for indirect measurement of respiratory volume changes as described, infra. Additional pentobarbital sodium (15 mg/kg, i.v.) is administered to arrest spontaneous respiration. A cyclooxygenase inhibitor, indomethacin (10 mg/kg in tris buffer, i.v. at 9 min.) is administered to shunt arachidonic metabolism to lipoxygenase pathways. One minute later, chlorpheniramine (1.0 mg/kg in saline, i.v.) is given to attenuate the histaminic component of anaphylactic bronchoconstriction. Test drugs are administered either intravenously, intraduodenally or by aerosol at 2 or 10 minutes before antigen challenge. Anaphylactic bronchoconstriction is induced by administration of aerosolized OA (1%). Aerosols of OA or soluble drug are produced in-line for 10 seconds only by actuation of an ultrasonic nebulizer (Monaghan). Aerosolized drug dosage is expressed in terms of solution concentration and by a fixed aerosol exposure time (approximately10 seconds). Control animals receive saline in place of drug.
(§1) Respiratory volume changes are determined by a calibrated piston whose travel is recorded, via a linear transducer, on a Beckman Dynograph recorder. Maximal bronchoconstrictor volume is determined by clamping off the trachea at the end of the experiment. Overflow volumes at minutes 1, 3 and 5 are obtained from the recorded charts.
The overflow volume at 1, 3 and 5 minutes is expressed as a percentage of maximal bronchoconstriction. Combined group values are used from each of these time intervals to determine the inhibitory effect of drugs. [formula] Students t-test for unpaired data is used to determine statistical significance. Dose response curves are generated and ED50 doses are interpolated from the regression lines.
The results for three compounds of the invention, with administration of the compounds at 10 minutes before ovalbumin challenge are presented below: […]

[2] = test system: synthesis of 5-HETE by rat glycogen-elicited polymorphonuclear leukocytes (lipoxygenase); assay: inhibition of 5-HETE synthesis by rat glycogen-elicited polymorphonuclear leukocytes; assay type: cell-based, rat (female Wistar); conditions: Leukocyte, read-out: 50% Inhibitory Concentration (IC50) 5-HETE; rat peritoneal PMN, A23187 10 μM, [14C]arachidonic acid, 10 min preincubation at 37° C.
Description: (§2) Roy. […] Med., 74, 831 (1981)]. […] The assay is carried out as follows: Peritoneal PMN are obtained from female Wistar rats (150-250 g) that received an i.p. injection of 6% glycogen (10 ml). After 24 hours, rats are killed by CO2 asphyxiation and peritoneal cells are harvested by peritoneal lavage using Ca^++ and Mg^++ free Hanks' balanced salt solution (HBSS). The peritoneal exudate is centrifuged at 400 g for 10 minutes. […] To 1 ml portions of cell suspension, test drugs or vehicle are added and incubated at 37° C. for 10 minutes. […] The reaction is stopped by the addition of ice cold water (3 ml) and acidifying to pH 3.5. Lipoxygenase products are then extracted twice into diethyl ether.

[3] = test system: synthesis of LTB4 by rat glycogen-elicited polymorphonuclear leukocytes (lipoxygenase); assay: inhibition of LTB4 (5,12-diHETE) synthesis by rat glycogen-elicited polymorphonuclear leukocytes; assay type: cell-based, rat (female Wistar); conditions: Leukocyte, read-out: 50% Inhibitory Concentration (IC50) LTB4; rat peritoneal PMN, A23187 10 μM, [14C]arachidonic acid, 10 min preincubation at 37° C.
Description: as §2

[4] = test system: LTD4 induced bronchoconstriction; assay: in vivo inhibition of bronchospasm induced in guinea pigs by exogenously administered leukotriene (LTD4); design: species or system guinea pig (male Hartley); conditions: 50 mg/kg intraduodenal, 10 minutes before induction of bronchospasm by LTD4
Description: The assay of this Example measures the in vivo ability of the compounds of the invention to inhibit the bronchospasm induced in guinea pigs by the exogenously administered leukotrienes C4 and/or D4. This assay is essentially a measure of the SRS-A antagonist properties of the compounds tested.
This assay is carried out as follows:
Male Hartley strain guinea pigs (350-600 g) are anesthetized with pentobarbital sodium (50 mg/kg, i.p.). The jugular vein is cannulated for injection of drugs and the carotid artery for monitoring blood pressure. The trachea is cannulated for artificial ventilation by a miniature Starling pump and for indirect measurement of respiratory volume changes as described infra. Additional pentobarbital sodium (15 mg/kg, i.v.) is administered to arrest spontaneous respiration. Submaximal bronchoconstrictor responses are established in control animals by varying the dose-levels of leukotriene. Intravenous dose-levels for LTC4 range from 1 to 2 μg/kg and for LTD4 the range is from 0.3 to 1 μg/kg. The aerosol bronchoprovocation dose for LTC4 is generated from 1.6 μM solution and for LTD4 from a 2.0 μM solution.
Test drugs are administered either intravenously, intraduodenally, by aerosol or orally at 1 or 10 minutes before induction of bronchospasm by administration of either LTC4 or LTD4 at the predetermined dose-levels. Aerosols of soluble drugs or leukotrienes are produced in-line for 10 seconds only by actuation of an ultrasonic nebulizer (Monaghan). Aerosolized drug dosage is expressed in terms of solution concentration and by a fixed aerosol exposure time (approximately 10 seconds). Control animals receive saline in place of drug.
as §1, with “at” for “at minutes”, “5 minutes” for “5”
The overflow volume at 1, 3 and 5 minutes is expressed as a percentage of maximal bronchoconstriction. […]

Row | Structure (SMILES) | % Inhibition Overflow Volume at 1 min. [1] | % Inhibition Overflow Volume at 3 min. [1] | % Inhibition Overflow Volume at 5 min. [1] | pIC50 [2] | pIC50 [3] | % Inhibition Overflow Volume at 1 min. ([4]; 1 min.) | % Inhibition Overflow Volume at 3 min. ([4]; 3 min.) | % Inhibition Overflow Volume at 5 min. ([4]; 5 min.)
1 | COC(=O)CCC(=O)Nc1cccc(COc2ccc(C(C)=O)c(O)c2)c1 [Example 2, 4-[[3-[(4-acetyl-3-hydroxyphenoxy)methyl]phenyl]amino]-4-oxobutanoic acid, methyl ester] | 93% | 24% | 35% |  |  |  |  | 
2 | CCCCCC(=O)c1ccc(OCc2cccc(NC(=O)CCC(=O)OC)c2)cc1OC [Example 6c, 4-[[3-[[3-methoxy-4-(1-oxohexyl)phenoxy]methyl]phenyl]amino]-4-oxobutanoicacid, methyl ester] |  |  |  | 5.43 | 5.41 |  |  | 
3 | COC(=O)CC(=O)Nc1cccc(COc2ccc(C(C)=O)c(O)c2)c1 [Example 1, 3-[[3-[(4-acetyl-3-hydroxyphenoxy)methyl]phenyl]amino]-3-oxopropanoic acid, methyl ester] | 99% | 77% | 63% | 4.85 | 4.93 | 25% | 48% | 56%
4 | NC1=NN(c2cccc(C(F)(F)F)c2)CC1 [BW755C, reference compound] |  |  |  | 4.37 | 4.52 |  |  | 
5 | COC(=O)CC(=O)Nc1cccc(COc2ccc(C(C)=O)c(OC)c2)c1 [Example 4, 3-[[3-[(4-acetyl-3-methoxyphenoxy)methyl]phenyl]amino]-3-oxopropanoic acid, methyl ester] | 88% | 67% | 46% |  |  |  |  | 
6 | CCc1ccc(OCc2cccc(NC(=O)CCC(=O)OC)c2)cc1OC [Example 7, 4-[[3-[(4-ethyl-3-methoxyphenoxy)methyl]phenyl]amino]-4-oxobutanoic acid, methyl ester] |  |  |  | 5.25 | 5.15 |  |  | 
7 | CCCCCCc1ccc(OCc2cccc(NC(=O)CC(=O)OC)c2)cc1OC [Example 8b, 3-[[3-[(4-hexyl-3-methoxyphenoxy)methyl]phenyl]amino]-3-oxopropanoic acid, methyl ester] |  |  |  | 5.80 | 5.77 |  |  | 
